The text below walks through data of paper PMC5482845 (Scientific Reports, 2017).

The test system of one assay is atherosclerotic lesions. Details: method as in PMID 17803269, PMID 14718664. As to conditions: orally active; apolipoprotein E knockout mice and low density lipoprotein receptor knockout mice; cited from earlier work.
Assay [1] has as its target T1, SOAT2 (Homo sapiens, UniProt O75908).
T1 construct: expressed in transfected cells; host or cells: CHO cells (AC29, SOAT-deficient)
T1 sequence (O75908 1-522): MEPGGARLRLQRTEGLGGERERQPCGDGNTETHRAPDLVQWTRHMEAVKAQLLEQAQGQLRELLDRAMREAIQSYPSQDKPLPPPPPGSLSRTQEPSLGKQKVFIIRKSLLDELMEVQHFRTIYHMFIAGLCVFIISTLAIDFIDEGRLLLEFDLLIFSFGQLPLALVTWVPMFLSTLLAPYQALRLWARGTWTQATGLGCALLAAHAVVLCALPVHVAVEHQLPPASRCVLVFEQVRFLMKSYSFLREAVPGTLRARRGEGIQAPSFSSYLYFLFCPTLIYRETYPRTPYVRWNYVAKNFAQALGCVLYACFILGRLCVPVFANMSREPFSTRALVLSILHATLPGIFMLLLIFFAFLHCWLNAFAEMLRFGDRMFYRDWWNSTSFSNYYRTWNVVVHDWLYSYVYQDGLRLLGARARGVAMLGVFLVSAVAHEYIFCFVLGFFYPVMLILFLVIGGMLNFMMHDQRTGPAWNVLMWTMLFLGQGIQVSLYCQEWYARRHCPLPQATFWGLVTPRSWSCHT
The experiment in a line: [14C]CE synthesis in intact hSOAT2-CHO cells (cell-based assay). As to the method:
CHO cells (AC29 cells, SOAT-deficient cells)[37] expressing the SOAT1 or SOAT2 gene from African Green monkeys and humans were cultured by the method described previously.
The assay for the synthesis of [^14C]cholesteryl ester (CE) from [^14C]oleic acid in intact SOAT1- or SOAT2-CHO cells was performed according to our established method.

Assay [2] deals with T2, SOAT2 (Chlorocebus aethiops, UniProt O77759).
T2 construct: expressed in transfected cells; host or cells: CHO cells (AC29, SOAT-deficient)
T2 sequence (O77759 1-526): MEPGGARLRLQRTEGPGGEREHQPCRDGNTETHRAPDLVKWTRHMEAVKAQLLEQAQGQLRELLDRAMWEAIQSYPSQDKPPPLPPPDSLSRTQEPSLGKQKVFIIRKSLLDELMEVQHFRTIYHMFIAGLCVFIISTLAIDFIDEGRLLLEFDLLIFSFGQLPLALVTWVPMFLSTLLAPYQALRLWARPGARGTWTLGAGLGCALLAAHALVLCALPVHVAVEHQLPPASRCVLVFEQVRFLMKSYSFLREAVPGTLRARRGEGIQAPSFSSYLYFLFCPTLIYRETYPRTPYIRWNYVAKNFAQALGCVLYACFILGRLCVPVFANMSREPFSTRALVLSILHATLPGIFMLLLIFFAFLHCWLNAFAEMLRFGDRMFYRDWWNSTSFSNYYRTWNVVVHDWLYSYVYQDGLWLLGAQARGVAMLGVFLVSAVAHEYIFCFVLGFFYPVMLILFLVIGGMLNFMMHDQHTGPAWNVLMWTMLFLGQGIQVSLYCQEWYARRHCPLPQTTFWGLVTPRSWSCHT
As to conditions: enzyme-based assay; African green monkey; cited from earlier work.

Assay [3] has as its target T1, SOAT2. The assay can be described thus: Enzyme-based SOAT assay, microsomes from hSOAT2-CHO cells (Potter-type homogenizer). Type of assay: biochemical.
Procedure: An enzyme source from SOAT1-/SOAT2-CHO cells using a Potter-type homogenizer was prepared using our established method[18]. Briefly, SOAT1 or SOAT2-CHO cells (2.0 × 10^8 cells) were homogenized in 5 ml cold buffered sucrose solution (pH 7.2, 100 mM sucrose, 50 mM KCl, 40 mM KH2PO4, and 30 mM EDTA, hereafter referred to as Buffer A) including protease inhibitors (Complete mini (Roche)) in the Potter-type homogenizer. The microsomal fraction was pelleted by centrifugation at 100,000 × g at 4.0 °C for 1.0 h (TLA110, Beckman Coulter), resuspended in the same buffer at a concentration of 5.0 mg protein/ml, and stored at −80 °C until used.
SOAT1 and SOAT2 activities were measured using fractionation prepared as described above as an enzyme source[18]. Briefly, an assay mixture was made containing 500 µg BSA (fatty acid free) and [1-^14C]oleoyl-CoA (20 µM, 3.7 kBq). A test sample (5.0 µl in methanol solution) and microsomes or the ER fractionation of SOAT1- and SOAT2-CHO cells in a total volume of 200 µl Buffer A was incubated at 37 °C. The SOAT reaction was started by adding [1-^14C]oleoyl-CoA. After a 5-min incubation, the reaction was stopped by adding chloroform: methanol (2:1, 1.2 ml). […] After the organic solvent was removed by evaporation, lipids were separated on a TLC plate and the radioactivity of [^14C]CE was measured by our established method[18].
For assay [4], the target named is T3, SOAT1 (Chlorocebus aethiops, UniProt O77760).
T3 construct: expressed in transfected cells; host or cells: CHO cells (AC29, SOAT-deficient)
T3 sequence (O77760 1-550): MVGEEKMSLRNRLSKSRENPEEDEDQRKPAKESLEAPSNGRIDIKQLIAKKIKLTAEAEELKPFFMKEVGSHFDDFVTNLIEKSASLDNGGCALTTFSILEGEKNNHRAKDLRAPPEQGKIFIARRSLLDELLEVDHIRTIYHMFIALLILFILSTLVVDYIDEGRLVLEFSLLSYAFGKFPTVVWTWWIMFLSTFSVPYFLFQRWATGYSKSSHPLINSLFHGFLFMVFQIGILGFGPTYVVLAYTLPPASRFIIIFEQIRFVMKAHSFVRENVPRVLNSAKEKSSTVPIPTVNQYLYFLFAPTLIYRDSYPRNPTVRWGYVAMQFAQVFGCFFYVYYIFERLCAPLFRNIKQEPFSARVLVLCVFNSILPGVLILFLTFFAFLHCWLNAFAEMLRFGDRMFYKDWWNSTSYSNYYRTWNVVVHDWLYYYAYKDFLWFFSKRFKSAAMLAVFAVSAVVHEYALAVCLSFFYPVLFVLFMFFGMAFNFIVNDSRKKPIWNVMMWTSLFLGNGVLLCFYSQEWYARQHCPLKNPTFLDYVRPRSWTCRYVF
The assay can be described thus: Interaction of Biotin-Beau-immobilized beads with SOAT1 protein (SDS-PAGE, Western blotting). Type of assay: binding, African green monkey. Particulars: microsomes from SOAT1-CHO cells, band at approximately 53 kDa, none from AC29 cells or control beads. An excerpt:
The direct interaction between beauveriolide and SOAT1 was investigated. […] Therefore, Biotin-Beau may be employed as a useful bio-probe to investigate interactions between SOAT1 and beauveriolide. Biotin-Beau was attached to acrylamide-based streptavidin beads, and microsomes prepared from SOAT1-CHO cells and AC29 cells (control, SOAT-deficient CHO cells) were applied to the beads. After washing the beads, bound proteins were recovered with Laemmli sample buffer, separated by SDS-PAGE, and stained with the SOAT1 antibody. […] However, no protein was observed from control AC29 cells (lane (1)) or control beads (no Biotin-Beau-carrying beads) (lane (3)).
The microsomal fraction (500 µg protein in 100 µl buffer A) prepared from AC29 (SOAT-deficient CHO cells) or amgSOAT1-CHO cells using the Potter-type homogenizer as described above were mixed with 0.10% (v/v) Triton X-100 on ice for 10 min. Biotin-Beau (10 nmol)[11] was attached to acrylamide-based streptavidin beads (5.0 nmol)[39]. Microsomes (500 µg) prepared from AC29 cells or SOAT1-CHO cells were added to Biotin-Beau-carrying beads and mixed well at 4.0 °C for 1.0 h with a rotator. The beads were collected by centrifugation at 1,000 rpm at 4.0 °C for 5.0 min and washed three times with PBS (300 µl). […] After separation by SDS-PAGE, SOAT1 protein levels was measured as described above.
For orientation: A western blot detects proteins with antibodies after separation by electrophoresis.

Assay [5] has as its target T2, SOAT2. As to conditions: cell-based assay; African green monkey; cited from earlier work.
In assay [6] the target is T4, SOAT1 (Mus musculus, UniProt Q61263).
T4 construct: endogenous in cells; host or cells: primary mouse peritoneal macrophages (ICR mice)
T4 sequence (Q61263 1-540): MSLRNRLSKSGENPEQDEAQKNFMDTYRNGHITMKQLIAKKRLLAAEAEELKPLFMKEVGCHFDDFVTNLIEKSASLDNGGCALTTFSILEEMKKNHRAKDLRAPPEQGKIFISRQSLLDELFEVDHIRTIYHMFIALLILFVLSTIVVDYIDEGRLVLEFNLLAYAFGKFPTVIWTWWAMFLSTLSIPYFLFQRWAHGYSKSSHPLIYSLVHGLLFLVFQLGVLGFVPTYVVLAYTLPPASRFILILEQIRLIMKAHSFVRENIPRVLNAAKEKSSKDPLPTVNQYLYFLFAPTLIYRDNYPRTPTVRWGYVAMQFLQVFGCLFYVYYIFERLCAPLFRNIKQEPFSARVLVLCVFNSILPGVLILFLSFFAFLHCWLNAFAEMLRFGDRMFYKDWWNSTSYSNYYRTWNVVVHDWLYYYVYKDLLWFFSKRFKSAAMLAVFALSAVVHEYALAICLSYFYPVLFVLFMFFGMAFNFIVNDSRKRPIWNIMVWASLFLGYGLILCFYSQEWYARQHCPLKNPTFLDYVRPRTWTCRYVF
The experiment in a line: Immunofluorescence staining of SOAT1 and Biotin-Beau in mouse peritoneal macrophages. Type of assay: cell-based. Particulars: Biotin-Beau 9.8 µM. An excerpt:
Supplementary Experiment Methods
Goat anti-rabbit IgG conjugated to fluorescein isothiocyanate (FITC) was purchased from Sigma-Aldrich (St. Louis, MO). Hank’s balanced salt solution was purchased from Nissui Seiyaku (Tokyo, Japan). Streptavidin conjugated to Alexa Fluor 546 was purchased from Thermo Fisher Scientific (Wa l t h a m , M A). […]
Immunofluorescence staining of SOAT1 and Biotin-Beau in mouse peritoneal […]
Mouse peritoneal macrophages from ICR mice (Japan SLC, Inc., Japan) were prepared as described previously1. Briefly, primary mouse peritoneal macrophages (2.0 x 10^5 cells) with liposomes in each well of a tissue culture chamber (LAB-TEK 8-chamber) were incubated at 37°C in 5.0% CO 2. After a 14-h incubation, cells were washed three times with PBS, fixed with 3.7% formalin for 10 min, and permeabilized with PBS containing 0.10% Tr i t o n X-100 at room temperature for 20 min. […]
After a 1-h incubation, cells were stained with the secondary antibody, a goat anti-rabbit IgG conjugated to FITC ([…]) and streptavidin conjugated to Alexa Fluor 546 (1.0 µg/ml) in blocking buffer, for 1.0 h. Cells were washed three times after the incubation and analyzed with confocal laser scanning microscopy (LSM-510 META, Carl Zeiss, Germany). Images were analyzed with a Zeiss LSM Image Browser (Version 3.5.0.376) […]

The target in assay [7] is T3, SOAT1. Particulars: cited from earlier work.
In assay [8] the target is T3, SOAT1. Particulars: enzyme-based assay; African green monkey; cited from earlier work.
A further assay has as its system SOAT1 and SOAT2. Details: method as in PMID 14617738, PMID 17390588, PMID 16820149, PMID 16730694, PMID 16626720. Particulars: cited from earlier work.

Read-outs that look alike come from different tables or passages of the source.

`CCCC[C@H](C)[C@@H]1CC(=O)N[C@@H](Cc2ccccc2)C(=O)N[C@@H](C)C(=O)N[C@H]([C@@H](C)CC)C(=O)O1` [Beauveriolide III]: in the assay with atherosclerotic lesions, the “effect on atherosclerotic lesions” value was “reducing atherosclerotic lesions in the aortae and hearts”.

Turning to `CCCC[C@H](C)[C@@H]1CC(=O)N[C@@H](Cc2ccccc2)C(=O)N[C@@H](C)C(=O)N[C@H](CC(C)C)C(=O)O1` [Beauveriolide I], the results for the IC50 on SOAT2 [1], on SOAT2 [2] and against SOAT2 [3] were above 20 µM, 1.9 µM and 1100 nM, respectively.

On to `CCCC[C@H](C)[C@@H]1CC(=O)N[C@@H](C(c2ccccc2)c2ccccc2)C(=O)N[C@H](Cn2cc(CNC(=O)CCCCNC(=O)CCCC[C@@H]3SC[C@@H]4NC(=O)N[C@@H]43)nn2)C(=O)N[C@H](C2CCCCC2)C(=O)O1` [Biotin-labeled beauveriolide], for which the “binding to SOAT1 protein” value on SOAT1 [4] is given as “bound to the SOAT1 protein”; at SOAT1 [4] (listed as Biotin-Beau), “directly binds to the SOAT1 protein”. Moreover, the IC50 (commonly the midpoint of a concentration-inhibition curve) was 8 µM at SOAT2 [2]; above 10 µM on SOAT2 [5]; above 10 µM at SOAT1 [7] (cell-based assay, African green monkey); 0.6 µM on SOAT1 [8]. The “cellular localization relative to SOAT1” value at SOAT1 [6] is reported as “colocalized with a restricted area of SOAT1 protein distribution”. In addition, the “effect on CE synthesis” value on SOAT1 [7] (cell-based assay using SOAT1-/SOAT2-CHO cells) is “no effect on CE synthesis”. Also, on SOAT1 [8], the “SI (type)” value is given as “SOAT1 (SOAT1-selective type, SI < −1.00)”.

With `CSc1cc(C)nc(SC)c1NC(=O)CN1CCN(CCSc2nc3ccccc3[nH]2)CC1` [K-604], the “group of SOAT inhibitor from SI values” with SOAT1 and SOAT2 is “SOAT1-selective inhibitors (SOAT1-selective inhibitors (SI, <−1.00))”.

For the compound `CC(C)c1cc(C(C)C)c(CC(=O)NS(=O)(=O)Oc2c(C(C)C)cccc2C(C)C)c(C(C)C)c1` [avasimibe], the “group of SOAT inhibitor from SI values” in the assay on SOAT1 and SOAT2 was “dual inhibitors (dual inhibitors (−1.00 ≤ SI ≤+1.00) inhibiting SOAT1 and SOAT2)”.

On to `CCCCCCCCN1CCc2c(C)c(CC(=O)O)c(C)c(NC(=O)C(C)(C)C)c21` [pactimibe], for which the “group of SOAT inhibitor from SI values” in the assay on SOAT1 and SOAT2 is “dual inhibitors (dual inhibitors (−1.00 ≤ SI ≤+1.00) inhibiting SOAT1 and SOAT2)”.
